Molecules are shown by their SMILES. In brackets after ≈: the same amount, converted by molar mass.

The subject of the first experiment is Acinetobacter baumannii ATCC17961. As to the kind of experiment: 90% Growth Inhibitory Concentration (IC90) determination, antimicrobial susceptibility testing. The class given is cell-based. The note with it: Acinetobacter baumannii, ATCC17961, 16 h, Acinetobacter baumannii ATCC17961; Iso-Sensitest broth; growth by optical density at 600 nm over 16h; concentration inhibiting 90% of the growth; read-out: ATCC 17961 IC90. A digest of the protocol: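 Broth microdilution in Iso-Sensitest medium, compounds twofold diluted (e.g. 50–0.097 μM final), inoculum ~5×10^(5) CFU/ml, 35±2° C. OD600 was read every 20 min over 16 h. IC90 was derived from growth inhibition during logarithmic growth.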
The term IC90 denotes the concentration at which the effect reaches the 90% level. For `Cn1c(-c2cn(-c3ccc(N)cn3)nc2C(F)(F)F)cnc1C(=O)Nc1ccc(C(=O)N[C@@H]2COC3(C2)CN(C(=O)[C@@H]2C[C@@H](O)CN2)C3)c(Cl)c1` [Example Z41, 5-[1-(5-amino-2-pyridyl)-3-(trifluoromethyl)pyrazol-4-yl]-N-[3-chloro-4-[[(7S)-2-[(2S,4R)-4-hydroxyprolyl]-5-oxa-2-azaspiro[3.4]octan-7-yl]carbamoyl]phenyl]-1-methyl-imidazole-2-carboxamide], the concentration for an effect of 90% (IC90) was determined as 300 nM. On the same count and under the same terms, the figure for `COc1cccc(-n2cc(-c3cnc(C(=O)Nc4ccc(C(=O)N5CCN(C(=O)C6CCNCC6)CC5)c(Cl)c4)n3C)c(C(F)(F)F)n2)n1` [Example Z31, N-[3-chloro-4-(4-isonipecotoylpiperazine-1-carbonyl)phenyl]-5-[1-(6-methoxy-2-pyridyl)-3-(trifluoromethyl)pyrazol-4-yl]-1-methyl-imidazole-2-carboxamide] is 860 nM; for `Cn1c(-c2cn(-c3ncc(NCCN)cn3)nc2C(F)(F)F)cnc1C(=O)Nc1ccc(C(=O)N2CCN(C(=O)C3CCNCC3)CC2)c(Cl)c1` [Example B2, 5-[1-[5-(2-aminoethylamino)pyrimidin-2-yl]-3-(trifluoromethyl)pyrazol-4-yl]-N-[3-chloro-4-[4-(piperidine-4-carbonyl)piperazine-1-carbonyl]phenyl]-1-methyl-imidazole-2-carboxamide] it is 170 nM; for `Cn1c(-c2cn(-c3cc(N)c([N+](=O)[O-])cn3)nc2C(F)(F)F)cnc1C(=O)Nc1ccc(C(=O)N2CCN(C(=O)C3CCNCC3)CC2)c(Cl)c1` [Example Z85, 5-[1-(4-amino-5-nitro-2-pyridyl)-3-(trifluoromethyl)pyrazol-4-yl]-N-[3-chloro-4-[4-(piperidine-4-carbonyl)piperazine-1-carbonyl]phenyl]-1-methyl-imidazole-2-carboxamide] it is 170 nM. On to `COc1ccnc(-n2cc(-c3cnc(C(=O)Nc4ccc(C(=O)N5CCN(C(=O)C6CCNCC6)CC5)c(Cl)c4)n3C)c(C(F)(F)F)n2)n1` [Example C5, N-[3-chloro-4-[4-(piperidine-4-carbonyl)piperazine-1-carbonyl]phenyl]-5-[1-(4-methoxypyrimidin-2-yl)-3-(trifluoromethyl)pyrazol-4-yl]-1-methyl-imidazole-2-carboxamide], for which the concentration for an effect of 90% (IC90) was 930 nM. Take `Cn1c(-c2cn(-c3ccc(N)cn3)nc2C(F)(F)F)cnc1C(=O)Nc1ccc(C(=O)NCCNC(=O)[C@@H]2C[C@@H](O)CN2)c(Cl)c1` [Example Z33, 5-[1-(5-amino-2-pyridyl)-3-(trifluoromethyl)pyrazol-4-yl]-N-[3-chloro-4-[2-[[(2S,4R)-4-hydroxyprolyl]amino]ethylcarbamoyl]phenyl]-1-methyl-imidazole-2-carboxamide]: the IC90 came out at 1220 nM. Consider `CN1CCC(C(=O)N2CCN(C(=O)c3ccc(NC(=O)c4ncc(-c5cn(-c6ccc(N)cn6)nc5C(F)F)n4C)cc3Cl)CC2)CC1` [Example C9, 5-[1-(5-amino-2-pyridyl)-3-(difluoromethyl)pyrazol-4-yl]-N-[3-chloro-4-[4-(1-methylpiperidine-4-carbonyl)piperazine-1-carbonyl]phenyl]-1-methyl-imidazole-2-carboxamide], for which the IC90 was 420 nM.

The experiment is the same for the next values; noted with them: Acinetobacter baumannii, ATCC17961, 16 h, read-out: ATCC 17961 IC90.
Regarding `Cn1c(-c2cn(-c3ccc(N)c(F)n3)nc2C(F)(F)F)cnc1C(=O)Nc1ccc(C(=O)N2CCN(C(=O)C3CCNCC3)CC2)c(Cl)c1` [Example Z72, 5-[1-(5-amino-6-fluoro-2-pyridyl)-3-(trifluoromethyl)pyrazol-4-yl]-N-[3-chloro-4-[4-(piperidine-4-carbonyl)piperazine-1-carbonyl]phenyl]-1-methyl-imidazole-2-carboxamide], the IC90 was determined as 250 nM.

As to `CN(C)c1cnc(-n2cc(-c3cnc(C(=O)Nc4ccc(C(=O)N5CCN(C(=O)C6CCNCC6)CC5)c(Cl)c4)n3C)c(C(F)(F)F)n2)nc1` [Example B1, N-[3-Chloro-4-[4-(piperidine-4-carbonyl)piperazine-1-carbonyl]phenyl]-5-[1-[5-(dimethylamino)pyrimidin-2-yl]-3-(trifluoromethyl)pyrazol-4-yl]-1-methyl-imidazole-2-carboxamide], the IC90 is 230 nM.

The test system of another experiment is Acinetobacter baumannii ATCC17978. As to the kind of experiment: Minimal Inhibitory Concentration (MIC) assay. The note with it: Acinetobacter baumannii ATCC17978; CAMHB; 20 hours at 35±2° C.; lowest concentration that inhibits visible growth; read-out: ATCC 17978 MIC. The experiment is classed as cell-based. Here is the method:
Minimal Inhibitory Concentration Protocol (MIC) Assay:
Table 2 provides the in vitro potency of the compounds of present invention obtained against the strain Acinetobacter baumannii ATCC17978, which was assessed by an MIC (Minimal Inhibitory Concentration) assay as follows.
Test compounds were prepared from 10 mM DMSO stock solutions. The top dose was diluted from 10 mM to 2.5 mM by DMSO, followed by serial 2-fold 11 points dilutions in DMSO in a master plate (Greiner, Cat No: 651201). 2 μL compounds were transferred from the master plate into a new 96-well assay plate (Costar, 3599).
The growth medium […] Mueller Hinton Broth (CAMHB) was prepared by adding 22 g powder (BD, 212322) in 1 L purified water, autoclaved, and supplemented with sterilized CaCl2) (20 mg per liter) and MgCl2 (10 mg per liter).
Vials of each of the test microorganisms were maintained frozen in the vapor phase of a liquid nitrogen freezer. Took out the bacterial strain ATCC 17978 from liquid nitrogen freezer, thawed it at room temperature, and diluted the bacterial in the CAMHB medium to achieve a final inoculum of 2×10^5 CFU/mL. 98 μL of the adjusted bacteria suspension was dispensed to the assay plate and pipetted 5 times.
Then the assay plates were incubated for 20 hours at 35±2° C. in ambient air with humidity. Following incubation, MIC (μg/mL) value, the lowest concentration of drug that inhibits visible growth of the microorganism, was recorded by visual judgment of bacterial growth through magnification mirror of MIC reader, and the assay plates were photographed with Qcount system as image raw data. Meanwhile, the OD600 of assay plates was recorded with SpectraMax Plus384 as OD raw data.
In general, MIC refers to the lowest concentration that inhibits growth of the organism. For the compound `CCc1nn(-c2ccc(N)cn2)cc1-c1cnc(C(=O)Nc2ccc(C(=O)N3CCN(C(=O)C4CCN(C)CC4)CC3)c(Cl)c2)n1C` [Example C13, 5-[1-(5-amino-2-pyridyl)-3-ethyl-pyrazol-4-yl]-N-[3-chloro-4-[4-(1-methylpiperidine-4-carbonyl)piperazine-1-carbonyl]phenyl]-1-methyl-imidazole-2-carboxamide], the MIC turned out to be 16.5 µg/mL (≈ 25 µM). Take `Cc1nn(-c2ccc(N)cn2)cc1-c1cnc(C(=O)Nc2ccc(C(=O)N3CCN(C(=O)C4CCN(C)CC4)CC3)c(Cl)c2)n1C` [Example C12, 5-[1-(5-amino-2-pyridyl)-3-methyl-pyrazol-4-yl]-N-[3-chloro-4-[4-(1-methylpiperidine-4-carbonyl)piperazine-1-carbonyl]phenyl]-1-methyl-imidazole-2-carboxamide]: the MIC was 38 µg/mL (≈ 58.8 µM). On to `CNc1ccc(-n2cc(-c3cnc(C(=O)Nc4ccc(C(=O)N5CCN(C(=O)[C@@H]6CCNC[C@H]6O)CC5)c(Cl)c4)n3C)c(C(F)(F)F)n2)nc1.O=CO` [Example D2], for which the minimal inhibitory concentration (MIC) turned out to be 1.12 µg/mL.

As for `COc1cnc(-n2cc(-c3cnc(C(=O)Nc4ccc(C(=O)N5CCN(C(=O)C6CCNCC6)CC5)c(Cl)c4)n3C)c(C(F)(F)F)n2)nc1.O=CO` [Example A4, N-[3-chloro-4-[4-(piperidine-4-carbonyl)piperazine-1-carbonyl]phenyl]-5-[1-(5-methoxypyrimidin-2-yl)-3-(trifluoromethyl)pyrazol-4-yl]-1-methyl-imidazole-2-carboxamide], the MIC was 2.19 µg/mL. As for `CN1CCC(C(=O)N2CCN(C(=O)c3ccc(NC(=O)c4ncc(-c5cn(-c6ccc(N)nn6)nc5C(F)(F)F)n4C)cc3Cl)CC2)CC1` [Example C14, 5-[1-(6-aminopyridazin-3-yl)-3-(trifluoromethyl)pyrazol-4-yl]-N-[3-chloro-4-[4-(1-methylpiperidine-4-carbonyl)piperazine-1-carbonyl]phenyl]-1-methyl-imidazole-2-carboxamide], the MIC was 5.09 µg/mL (≈ 7.27 µM).

As to `CNc1ccc(-n2cc(-c3cnc(C(=O)Nc4ccc(C(=O)N5CCN(C(=O)C6(O)CCNCC6)CC5)c(Cl)c4)n3C)c(C(F)(F)F)n2)nc1.O=CO` [Example D3, N-[3-chloro-4-[4-(4-hydroxypiperidine-4-carbonyl)piperazine-1-carbonyl]phenyl]-1-methyl-5-[1-[5-(methylamino)-2-pyridyl]-3-(trifluoromethyl)pyrazol-4-yl]imidazole-2-carboxamide], the MIC was determined as 1.16 µg/mL. On to `CN(C)c1ccnc(-n2ncc(-c3cnc(C(=O)Nc4ccc(C(=O)N5CCN(C(=O)C6CCNCC6)CC5)c(Cl)c4)n3C)c2C(F)(F)F)n1.O=C(O)C(F)(F)F` [Example A18, N-[3-chloro-4-[4-(piperidine-4-carbonyl)piperazine-1-carbonyl]phenyl]-5-[1-[4-(dimethylamino)pyrimidin-2-yl]-5-(trifluoromethyl)pyrazol-4-yl]-1-methyl-imidazole-2-carboxamide], for which the MIC worked out at 2.23 µg/mL. For the compound `Cn1c(-c2cn(-c3ncccn3)nc2C(F)(F)F)cnc1C(=O)Nc1ccc(C(=O)N[C@H]2[C@@H]3CN(C(=O)C4CCNCC4)C[C@@H]32)c(Cl)c1.O=CO` [Example F3, N-[3-chloro-4-[[(1S,5R)-3-(piperidine-4-carbonyl)-3-azabicyclo[3.1.0]hexan-6-yl]carbamoyl]phenyl]-1-methyl-5-[1-pyrimidin-2-yl-3-(trifluoromethyl)pyrazol-4-yl]imidazole-2-carboxamide], the MIC is 4.41 µg/mL. Regarding `COCCOc1ccc(-n2cc(-c3cnc(C(=O)Nc4ccc(C(=O)N5CCN(C(=O)C6CCNCC6)CC5)c(Cl)c4)n3C)c(C(F)(F)F)n2)nc1.O=CO` [Example A7, N-[3-chloro-4-[4-(piperidine-4-carbonyl)piperazine-1-carbonyl]phenyl]-5-[1-[5-(2-methoxyethoxy)-2-pyridyl]-3-(trifluoromethyl)pyrazol-4-yl]-1-methyl-imidazole-2-carboxamide], the MIC was 1.16 µg/mL. With `Cn1c(-c2cn(-c3ncccn3)nc2C(F)(F)F)cnc1C(=O)Nc1ccc(C(=O)N[C@H]2[C@@H]3CN(C(=O)[C@@H]4C[C@@H](O)CN4)C[C@@H]32)c(Cl)c1.O=CO` [Example F2, N-[3-chloro-4-[[(1R,5S)-3-[(2S,4R)-4-hydroxypyrrolidine-2-carbonyl]-3-azabicyclo[3.1.0]hexan-6-yl]carbamoyl]phenyl]-1-methyl-5-[1-pyrimidin-2-yl-3-(trifluoromethyl)pyrazol-4-yl]imidazole-2-carboxamide], the MIC was determined as 4.43 µg/mL.

The values above are taken from US12679824B2 (Hoffmann-La Roche Inc., priority 2020, dated 2026).
